Data from patent US4446136A, “Agents for improvement of peripheral blood flow” (Yamanouchi Pharmaceutical Co., Ltd., priority 1980, dated 1984).

What was measured:
[1] = tested on: blood flow in microvessels; assay: Effects on microcirculation in vivo in mesenterium of rabbit with lowered blood pressure (Experiment 3); settings: other substances, anesthetized rabbit, low arterial blood pressure
erythrocytes = assay: Dose-response of gelatin on filtration and hemolysis of erythrocytes (Experiment 4(i)); format: cell-based
Procedure: (i) Following procedures similar to the Experiment 2 using a concentration of gelatin between 0-2.0 mg/ml, effects of the substance on the filtration ratios of erythrocytes through the membrane filter and the ratio of hemolysis were examined at various concentrations of gelatin.

Rat = assay: Acute toxicity (LD50) in rat; format: in vivo; design: unit not given here; settings: intravenous, intraperitoneal, subcutaneous
Sheep = assay: Acute toxicity (LD50 of gelatin) in sheep; format: in vivo; design: unit not given here; settings: intravenous, intraperitoneal, subcutaneous
HeLa S3 = assay: Toxicity of gelatin to cells in culture; format: cell-based
[2] = tested on: Lung fibroblasts of human embryo; assay: Toxicity of gelatin to cells in culture; format: cell-based
[3] = tested on: EB virus transformed lymphoblastoid cells P3HR-1; assay: Toxicity of gelatin to cells in culture; format: cell-based
[4] = Antigenic activity of gelatin; settings: by itself
[5] = Acute toxicity, overall (Experiment 5); format: in vivo; settings: summary of Tables 1, 2 and 3

Procedure for human erythrocytes: A mixture of 1 part of human blood and 1 part (v/v) of preservative solution (sodium citrate buffer containing glucose) was washed 4 to 5 times with physiological saline solution and then 2% (by volume) erythrocyte solution was prepared in physiological saline. In the next step, physiological saline solutions containing 0.05% gelatin, 0.1% α1 -acid glycoprotein, 0.1% polyethylene glycol, 0.1% γ-globulin, 0.1% ovomucoid, 0.1% dextran, 0.1% dextran sulfate, 0.1% chondroitin sulfate, or physiological saline alone were mixed with an equal volume of the erythrocyte suspension, and then each mixture was shaken mildly for 30 min at 37° C. Thereafter 1 ml of each mixture was subjected to filtration through a nitrocellulose membrane filter (13 mm in diameter and 5 μm in average size of micropores, made by Sartorius Co.) at 37° C. under a pressure of 80 mmHg/cm^2. The filtrate was immediately subjected to centrifugation for 2 min at 1,500 r.p.m. and from the supernatant, the ratio of hemolysis during filtration was calculated based on absorbance at 420 nm. As to the erythrocytes remaining on the filter, 5 ml of deionized water was added to the erythrocytes on the membrane filter by placing into a test tube, and the resulting hemolysis due to hypotonicis permitted a measurement of absorbance at 420 nm to calculate the ratio of filtered erythrocytes through the membrane.

Substance | erythrocytes hemolysed during filtration (human erythrocytes; human, erythrocytes) | actions on microcirculation as observed for gelatin [1] | filtration ratio on further increase in concentration (erythrocytes; above 0.5 mg/ml gelatin) | concentration at which filtration ratio of erythrocytes reached plateau (erythrocytes; gelatin 0-2.0 mg/ml) [mg/mL] | LD50 of gelatin (Rat) | LD50 of gelatin (Sheep) | Toxicity (50% growth inhibition) (HeLa S3) [µg/mL] | Toxicity (50% growth inhibition) [2] [µg/mL] | Toxicity (50% growth inhibition) [3] [µg/mL] | antigenic activity [4] | acute toxicity (in words) [5] | ratio of passage (filtration) of erythrocytes through the filter (human erythrocytes; 0.05% gelatin, 0.1% other substances, 5 μm micropores, 37° C., 80 mmHg/cm^2) | ratio of hemolysis during filtration (in words) (human erythrocytes; 0.05% gelatin, 5 μm micropores, 37° C., vs physiological saline control)
dextran sulfate [reference compound] | 25-30% | did not exert any actions on microcirculation |  |  |  |  |  |  |  |  |  |  | 
gelatin |  |  | did not improve the filtration ratio | 0.5 | > 1,000 | > 1,000 | > 100 | > 100 | > 100 | no antigenic activity | very mild | increased remarkably | reduced
